Measured values: US11220482B2, “Aminopyridinemethanol compounds and their use” (UNIVERSITE AMIENS PICARDIE JULES VERNE, priority 2017, dated 2022)
Like-named read-outs stand apart in the source and are kept apart here.

What was measured:
[1] = test system: Plasmodium falciparum 3D7; test: Plasmodium falciparum susceptibility assay, first round (SYBR Green I); assay type: cell-based; details: 3D7, first round, 48-h incubation, strain susceptible to CQ, decreased susceptibility to MQ, read-out: IC50 (nM) Plasmodium falciparum 3D7 (converted)
Plasmodium falciparum W2 = test: as above; assay type: cell-based; details: W2, first round, 48-h incubation, strain resistant to CQ, sensitive to MQ, read-out: IC50 (nM) Plasmodium falciparum W2 (converted)
CHO-K1 cells [2] = test: In vitro micronucleus assay, short-term exposure; details: for MNC-M (mean of micronucleated cell rates): Chinese hamster, 3 h
Experimental: All the assays were conducted in duplicate. The CHO-K1 cells, suspended in McCoy's 5A medium, were transferred into Labteck wells at a concentration of 100,000 cells/mL, and incubated for 24 hours at 37° C. in CO2 (5%).
When the test was performed without metabolic activation, the test substances were added into cell cultures at concentrations previously defined.
When the assay was performed in the presence of metabolic activation, S9 mix metabolizing mixture was added to cell cultures at a concentration of 10%. Then the test substances were added to the cell cultures at concentrations previously defined.
After 3 hours of incubation at 37° C. in CO2 (5%), the culture medium was removed, the cells were rinsed with phosphate buffered saline (PBS), and then returned to culture in McCoy's 5A medium containing […] of cytochalasin B. After a 21-hour incubation period at 37° C., cells were rinsed with phosphate buffered saline (PBS), fixed with methanol and stained with 10% Giemsa for 20 minutes.
(§1) The analysis of results was performed under a microscope at ×1000 magnification. The antiproliferative activity of test substances was estimated by counting the number of binucleated cells relative to the number of mononucleated cells on a total of 500 cells for each dose (250 cells counted per well). The proliferation index (Cytokinesis Blocked Proliferative Index CBPI) was calculated using the following formula:
(§2) The cytostasis index (CI %), i.e. the percentage of cell replication inhibition, was calculated using the following formula: CI %−100−{100×(CBPItest material−1)/(CBPIsolvent control−1)}
(§3) The rates of micronuclei were evaluated for the presence of independent nuclear core entities in 1000 binucleated cells per well, which corresponds to 2000 cells examined by test substance dose. Micronuclei were identified as small nuclei well differentiated from cell nucleus, stained in the same manner and having a diameter less than one third of that of the cell nucleus.
(§4) Micronuclei rates obtained for different doses of test substances were compared to the negative control by a χ2 test. The assay was considered positive if: • A dose-response relationship was obtained between the rate of micronuclei and the doses tested, • At least one of these doses induced a statistically significant increase (P<0.05) in the number of micronucleated cells as compared to the negative control.

CHO-K1 cells [3] = details: Chinese hamster, 24 h
Experimental: All the assays were conducted in duplicate. The CHO-K1 cells, suspended in Mac Coy's 5A medium, were transferred into Labteck wells at a concentration of 100,000 cells/mL, and incubated for 24 hours at 37° C. in CO2 (5%).
The test was performed without metabolic activation: the test substances were added into cell cultures at concentrations previously defined. […] After 24 hours of incubation at 37° C. in CO2 (5%), the culture medium was removed, the cells were rinsed with phosphate buffered saline (PBS), and then returned in culture medium containing […] of cytochalasine B. After a 24-hour incubation period at 37° C., cells were rinsed with phosphate buffered saline (PBS), fixed with methanol and stained with 10% Giemsa for 20 minutes.
as §1, §2, §3, §4

Salmonella strains = test: Bacterial reverse mutation assay (Ames test), overall conclusion; assay type: cell-based, S. typhimurium; details: all tested doses, absence or presence of the metabolizing mixture
Experimental: Five strains of S. typhimurium were used. […] An additional strain has been chosen to detect cross-linking mutagens, hydrazines and oxidative agents: TA102, which have an AT base pair at the primary reversion site. Salmonella tester strains were gifts from Prof. B. N. Ames (Berkeley, Calif., USA). They were stored at −80° C. and regularly checked for genetic markers.
Few crystals of the frozen working strains were taken with a sterile pipette, and seeded in 10 mL of nutrient broth (NB No 2, Oxoid). Strains were grown overnight at 37° C. with shaking in Nutrient Broth No. 2, with ampicillin (25 μg/mL) for TA1535, TA97a, TA98, and TA 100, or ampicillin (25 μg/mL) plus tetracyclin (2 μg/mL) for TA 102. At the end of the incubation period, 0.1 mL of each overnight culture was mixed to 0.1 mL S9 Mix or 0.1 mL phosphate-buffered saline (PBS, pH 7.4) in 5 mL plastic tubes and various volumes of the tested samples were added to the mixtures. Each experiment included triplicate plates of four tested doses. A solvent (DMSO, 10 μL) control was added to determine the spontaneous frequency of revertants (quadruple plates). Five positive controls were also included to ensure the performance of the tester strains and the S9 Mix. […] After hardening, the plates were incubated at 37° C. for 48 hours.
At the end of the incubation period, revertants were counted with a laser colony counter equipped with a bacterial enumeration program (Spiral System Instrument Inc., Bethesda, Md., USA).
The Dunnett test was performed to determine a significant difference between the mean number of induced revertants and the mean number of spontaneous revertants.

S. typhimurium TA98 = test: Bacterial reverse mutation assay (Ames test)
P. falciparum 3D7 = test: P. falciparum growth inhibition assay, second round (SYBR Green I, ICEstimator); assay type: cell-based, Plasmodium falciparum; details: Plasmodium falciparum, 3D7, 48 h
[4] = human, in vivo; cited from earlier work
[5] = Table 18 second section, "Test without S9 mix", 0.4 μg/plate
[6] = Table 18 second section, "Test without S9 mix", 0.6 μg/plate
[7] = Table 18 second section, "Test without S9 mix", 0.8 μg/plate
[8] = Table 18 second section, "Test without S9 mix", 1 μg/plate

CCCCCNC[C@@H](O)c1cc(-c2ccc(C(F)(F)F)cc2)nc(C(F)(F)F)c1 [Compound 1a]
IC50 [1]: 52.4 ± 1.7 nM | IC50 (Plasmodium falciparum W2): 8.6 ± 1 nM | in vitro micronucleus assay result (clastogenic and/or aneugenic activities) (CHO-K1 cells [2]): negative results | MNC-M (mean of micronucleated cell rates) (CHO-K1 cells [2]; 10 μM): 9.5 ± 0.7 ‰ | MNC-M (mean of micronucleated cell rates) (CHO-K1 cells [2]; 50 μM): 10 ± 1.4 ‰ | MNC-M (mean of micronucleated cell rates) (CHO-K1 cells [2]; 100 μM): 11 ± 1.4 ‰ | BI (binucleated cells) (CHO-K1 cells [3]; 5 μM): 417 | CBPI (Cytokinesis-Blocked Proliferative Index) (CHO-K1 cells [3]; 5 μM): 1.83 | CI % (cytostasis index) (CHO-K1 cells [3]; 5 μM): 8% | MNC1 (micronucleated cell rate) (CHO-K1 cells [3]; 5 μM): 10 ‰ | MNC2 (micronucleated cell rate) (CHO-K1 cells [3]; 5 μM): 9 ‰ | MNC-M (mean of micronucleated cell rates) (CHO-K1 cells [3]; 5 μM): 9.5 ± 0.7 ‰ | MONO (mononucleated cells) (CHO-K1 cells [3]; 5 μM): 83 | BI (binucleated cells) (CHO-K1 cells [3]; 10 μM): 323 | CBPI (Cytokinesis-Blocked Proliferative Index) (CHO-K1 cells [3]; 10 μM): 1.64 | CI % (cytostasis index) (CHO-K1 cells [3]; 10 μM): 29% | MNC1 (micronucleated cell rate) (CHO-K1 cells [3]; 10 μM): 9 ‰ | MNC2 (micronucleated cell rate) (CHO-K1 cells [3]; 10 μM): 11 ‰ | MNC-M (mean of micronucleated cell rates) (CHO-K1 cells [3]; 10 μM): 10 ± 1.4 ‰ | MONO (mononucleated cells) (CHO-K1 cells [3]; 10 μM): 177 | BI (binucleated cells) (CHO-K1 cells [3]; 50 μM): 226 | CBPI (Cytokinesis-Blocked Proliferative Index) (CHO-K1 cells [3]; 50 μM): 1.46 | CI % (cytostasis index) (CHO-K1 cells [3]; 50 μM): 52% | MNC1 (micronucleated cell rate) (CHO-K1 cells [3]; 50 μM): 10 ‰ | MNC2 (micronucleated cell rate) (CHO-K1 cells [3]; 50 μM): 12 ‰ | MNC-M (mean of micronucleated cell rates) (CHO-K1 cells [3]; 50 μM): 11 ± 1.4 ‰ | MONO (mononucleated cells) (CHO-K1 cells [3]; 50 μM): 274 | mutagenic activity in Salmonella strains (revertant rates) (Salmonella strains): No significant increase in revertant rates | Number of revertants by plate (Means ± SD), TA1535 (S. typhimurium TA1535; [5]): 29 ± 8^NS | Number of revertants by plate (Means ± SD), TA1535 (S. typhimurium TA1535; [6]): 29 ± 9^NS | Number of revertants by plate (Means ± SD), TA1535 (S. typhimurium TA1535; [7]): 32 ± 8^NS | Number of revertants by plate (Means ± SD), TA1535 (S. typhimurium TA1535; [8]): 27 ± 4^NS | Number of revertants by plate (Means ± SD), TA1535 (S. typhimurium TA1535; without S9 mix, 0.4 μg/plate): 25 ± 6^NS | Number of revertants by plate (Means ± SD), TA1535 (S. typhimurium TA1535; without S9 mix, 0.6 μg/plate): 30 ± 5^NS | Number of revertants by plate (Means ± SD), TA1535 (S. typhimurium TA1535; without S9 mix, 0.8 μg/plate): 31 ± 4^NS | Number of revertants by plate (Means ± SD), TA1535 (S. typhimurium TA1535; without S9 mix, 1 μg/plate): 26 ± 6^NS | Number of revertants by plate (Means ± SD), TA97a (S. typhimurium TA97a; [5]): 128 ± 8^NS | Number of revertants by plate (Means ± SD), TA97a (S. typhimurium TA97a; [6]): 133 ± 4^NS | Number of revertants by plate (Means ± SD), TA97a (S. typhimurium TA97a; [7]): 147 ± 10^NS | Number of revertants by plate (Means ± SD), TA97a (S. typhimurium TA97a; [8]): 151 ± 6^NS | Number of revertants by plate (Means ± SD), TA97a (S. typhimurium TA97a; without S9 mix, 0.4 μg/plate): 161 ± 8^NS | Number of revertants by plate (Means ± SD), TA97a (S. typhimurium TA97a; without S9 mix, 0.6 μg/plate): 155 ± 6^NS | Number of revertants by plate (Means ± SD), TA97a (S. typhimurium TA97a; without S9 mix, 0.8 μg/plate): 159 ± 8^NS | Number of revertants by plate (Means ± SD), TA97a (S. typhimurium TA97a; without S9 mix, 1 μg/plate): 154 ± 9^NS | Number of revertants by plate (Means ± SD), TA100 (S. typhimurium TA100; [5]): 185 ± 8 | Number of revertants by plate (Means ± SD), TA100 (S. typhimurium TA100; [6]): 183 ± 7^NS | Number of revertants by plate (Means ± SD), TA100 (S. typhimurium TA100; [7]): 172 ± 6^NS | Number of revertants by plate (Means ± SD), TA100 (S. typhimurium TA100; [8]): 177 ± 4^NS | Number of revertants by plate (Means ± SD), TA100 (S. typhimurium TA100; without S9 mix, 0.4 μg/plate): 189 ± 8 | Number of revertants by plate (Means ± SD), TA100 (S. typhimurium TA100; without S9 mix, 0.6 μg/plate): 192 ± 9^NS | Number of revertants by plate (Means ± SD), TA100 (S. typhimurium TA100; without S9 mix, 0.8 μg/plate): 215 ± 13^NS | Number of revertants by plate (Means ± SD), TA100 (S. typhimurium TA100; without S9 mix, 1 μg/plate): 196 ± 14^NS | Number of revertants by plate (Means ± SD), TA102 (S. typhimurium TA102; [5]): 387 ± 8^NS | Number of revertants by plate (Means ± SD), TA102 (S. typhimurium TA102; [6]): 395 ± 9^NS | Number of revertants by plate (Means ± SD), TA102 (S. typhimurium TA102; [7]): 379 ± 8^NS | Number of revertants by plate (Means ± SD), TA102 (S. typhimurium TA102; [8]): 378 ± 5^NS | Number of revertants by plate (Means ± SD), TA102 (S. typhimurium TA102; without S9 mix, 0.4 μg/plate): 319 ± 12^NS | Number of revertants by plate (Means ± SD), TA102 (S. typhimurium TA102; without S9 mix, 0.6 μg/plate): 308 ± 10^NS | Number of revertants by plate (Means ± SD), TA102 (S. typhimurium TA102; without S9 mix, 0.8 μg/plate): 325 ± 13^NS | Number of revertants by plate (Means ± SD), TA102 (S. typhimurium TA102; without S9 mix, 1 μg/plate): 318 ± 10^NS | Number of revertants by plate (Means ± SD), TA98 (S. typhimurium TA98; [5]): 28 ± 3^NS | Number of revertants by plate (Means ± SD), TA98 (S. typhimurium TA98; [6]): 25 ± 5^NS | Number of revertants by plate (Means ± SD), TA98 (S. typhimurium TA98; [7]): 31 ± 6^NS | Number of revertants by plate (Means ± SD), TA98 (S. typhimurium TA98; [8]): 25 ± 3^NS | Number of revertants by plate (Means ± SD), TA98 (S. typhimurium TA98; without S9 mix, 0.4 μg/plate): 30 ± 4^NS | Number of revertants by plate (Means ± SD), TA98 (S. typhimurium TA98; without S9 mix, 0.6 μg/plate): 28 ± 8^NS | Number of revertants by plate (Means ± SD), TA98 (S. typhimurium TA98; without S9 mix, 0.8 μg/plate): 31 ± 6^NS | Number of revertants by plate (Means ± SD), TA98 (S. typhimurium TA98; without S9 mix, 1 μg/plate): 24 ± 5^NS

O[C@@H](CNCCCN1CCN(C(c2ccccc2)c2ccccc2)CC1)c1cc(-c2ccc(C(F)(F)F)cc2)nc(C(F)(F)F)c1 [Compound 1n, (R)-2-((3-(4-benzhydrylpiperazin-1-yl)propyl)amino)-1-(2-(trifluoromethyl)-6-(4-(trifluoromethyl)phenyl)pyridin-4-yl)ethanol]
IC50 (Plasmodium falciparum W2): 86.9 nM | IC50 (P. falciparum 3D7): < 50 nM

OC(c1cc(C(F)(F)F)nc2c(C(F)(F)F)cccc12)C1CCCCN1 (centres unmarked) [MQ, Mefloquine, reference compound]
IC50 [1]: 79.7 ± 8.5 nM | IC50 (Plasmodium falciparum W2): 31.8 ± 1 nM | IC50 (P. falciparum 3D7): 32.3 ± 3.2 nM

CCCCN(CCCC)CC(O)c1cc(Cl)cc2c1-c1ccc(Cl)cc1/C2=C/c1ccc(Cl)cc1 (centres unmarked) [lumefantrine]
human t1/2 [4]: 72 to 96 h
